Measured values from article PMC6232370, “Metabolism and Bioactivation of Corynoline With Characterization of the Glutathione/Cysteine Conjugate and Evaluation of Its Hepatotoxicity in Mice” (Frontiers in Pharmacology, 2018).

Experiments:
BALB/c male mice = assay: Hepatotoxicity study in mice; type: in vivo
Procedure: Thirty-six BALB/c male mice were randomly divided into four groups (nine animals per group) including control group, low (125 mg/kg), middle (250 mg/kg), and high (500 mg/kg) three dosages group. CRL was dissolved firstly in DMSO and then prepared in 0.5% carboxymethyl cellulose sodium (CMC-Na) to make a suspension of 10, 20, and 30 mg/mL and the final concentration of DMSO in the suspension was no more than 5%. CRL was administered to the mice in different groups through oral gavage. Mice in control group were given equal volume 0.5% CMC-Na (contained 5% DMSO) solution with high dosage group. Blood samples were drawn from the orbital vein using cannulation under anesthesia at 24 h after oral administration. After centrifugation at 2,000 g for 15 min, the serum samples were stored at −20°C until analysis. Then mice were euthanized by decapitation after blood collection. Samples of liver were obtained and one part of which was fixed in 10% formaldehyde for observing histological change with optical microscope. The content of ALT and AST in mice serum was detected according the operation instruction of the kit.

[1] = Tissue distribution of CRL in mice; type: in vivo; conditions: 250 mg/kg intragastric
Procedure: Thirty BALB/c male mice were fasted overnight but allowed access to water before drug administration. Five groups of mice (six mice per group) were intragastric administered a single dose of 250 mg/kg CRL. The mice in five groups were euthanized by decapitation at pre-dose, 0.5, 2, 4, and 8 h after dosing, respectively. Tissues including heart, liver, spleen, lung, kidney, and brain were dissected and washed with saline, then were blotted with filter paper and weighed accurately. The tissue samples were homogenized in ice-cold saline (1:3, w/v, g/mL). These tissue homogenates were then stored at −20°C and allowed to thaw at room temperature and vortex-mixed before processing. A 200 μL tissue sample was mixed with 5 μL IS solution (donepezil, 500 ng/mL). The mixture was deproteinized with 800 μL of acetonitrile, vortexed for 5 min, and then centrifuged at 17,000 × g for 10 min. An aliquot of 5 μL supernatant was then used for quantifying the content of CRL in each tissue by the LC-MS/MS.

[2] = test system: human A549, SK-OV-3, SK-MEL-2, and HCT15 tumor cells; parameters: method as in Choi et al. (2007); conditions: ref Choi et al. (2007), read-out: 50% growth inhibition values; cited from earlier work
[3] = mice, 24 h after oral administration of 125, 250, and 500 mg/kg, P > 0.05

With `CN1Cc2c(ccc3c2OCO3)[C@@]2(C)[C@@H](O)Cc3cc4c(cc3[C@@H]12)OCO4` [CRL, Corynoline] the “Histopathological examination of the liver” value (BALB/c male mice; mice, 125, 250, and 500 mg/kg oral, 24 h) was “no pathological changes”, the “ALT in serum and livers compared with the control group” value (BALB/c male mice; [3]) was “not significantly different” and the “AST in serum and livers compared with the control group” value (BALB/c male mice; [3]) was “not significantly different”. The “Abnormal behaviors compared with control group” value (BALB/c male mice; mice, drug treatment groups 125–500 mg/kg oral, at about 10 min after administration, more pronounced with increasing dosage) was “lying on the bedding and shivering”, the “Body temperature of most mice” value (BALB/c male mice; mice, drug treatment groups 125–500 mg/kg oral, more pronounced with increasing dosage) was “lower than normal” and the “Hepatotoxicity / acute liver injury” value (BALB/c male mice; mice, experimental dosage 125–500 mg/kg oral) was “no obvious hepatotoxicity”. The “Dead mice after drug administration (all dosage groups)” value (BALB/c male mice; mouse, in vivo) was “three of them were dead”, the “Dead mice in high dosage group” value (BALB/c male mice; mouse, in vivo) was “two mice” and the “Dead mice in middle dosage group” value (BALB/c male mice; mouse, in vivo) was “one mouse”. For the same compound, the “Blood–brain barrier passage” value [1] was “could traverse the blood–brain barrier”, the “Highest concentration level in brain” value ([1]; single dose, mean ± SD) was 40.53 ± 20.50 µg/g and the “Highest concentration level in kidney” value ([1]; single dose, mean ± SD) was 68.73 ± 46.89 µg/g. The “Highest concentration level in liver” value ([1]; single dose, mean ± SD) was 92.91 ± 65.11 µg/g, the “Highest concentration level in lung” value ([1]; single dose, mean ± SD) was 27.27 ± 22.17 µg/g and the “Highest concentration level in spleen” value ([1]; single dose, mean ± SD) was 25.22 ± 18.67 µg/g. For the same compound, the concentration at 2 h ([1]; male, BALB/c, mouse, plasma, oral, at 2 h post dosing, mean ± SD) was 18400 ± 14200 ng/mL, the Tmax ([1]; male, BALB/c, mouse, tissues (heart, liver, spleen, lung, kidney, brain), po, tissues, post dosing, read-out: Time to reach the maximum concentration) was 2 h and the IC50 [2] was 5.27 to 6.14 µM.
